According to paper PMC12516689, “Stimuli-Responsive Hydrogels from Liquid–Liquid Phase Separations of FUS-Derived Peptides” (ACS Applied Materials & Interfaces, 2025):

What was measured:
[1] = Hydrogel formation, inverted test tube analysis; assay type: physicochemical; details: for Concentration at which self-supporting hydrogel is obtained: sonication
Experimental: Peptide solutions were dissolved in PBS at concentrations varying from 2.0 μM to 2.0 mM. To allow a complete dissolution, samples were sonicated for 15 min. Hydrogels were prepared by adding PBS to the peptide powder to a final concentration of 2 or 3 wt %. After sonication, samples were stored at 4 °C overnight and the hydrogel formation was macroscopically evaluated through inverted test tube analyses.
Self-supporting hydrogels of L1-L2 and of L1-L2-L3 were obtained starting from a concentration of 2 wt % when 10 mM PBS was used in place of water (inverted test tube, Figure a). […] From a biomedical perspective, achieving gelation at lower peptide concentrations is highly desirable to minimize potential cytotoxicity and facilitate in vivo applications. […] This sequence, in comparison to the L1 and L2 motifs, features a higher content of glycine residues and a single tyrosine, while L1 and L2 each contain two. The different behavior of L3 might therefore arise from a reduced number of π–π stacking interactions, a known driving factor in the gelation process, or the higher entropic cost associated with glycine residues.

[2] = Aggregation kinetics followed by self-fluorescence in microplate reader; assay type: physicochemical; details: 2.0 mM peptide in PBS; λex 355 nm, emission 460 nm over 300 h; 96-well plate, orbital shake 200 rpm; triplicate
Experimental: Aggregation kinetics of peptide samples at 2.0 mM were followed by using a FLUOstar Omega (BMG LABTECH) microplate reader. Aliquots of 100 μL of each sample were placed in wells of a 96-well plate and covered with an aluminum foil to avoid evaporation of the solvent. Experimental settings were: λex = 355 nm, gain 1000, bottom optic, orbital shake 200 rpm between readings. Emission intensity at 460 nm was recorded over 300 h and subtracted for the blank. Experiments were conducted in triplicate.
The aggregation kinetics of the four multi-LARK sequences were monitored using fluorescence experiments, by exploiting the photoemissive behavior of the peptides in the blue field. As the fluorescence emission of these sequences require the aggregation state, as shown by the analyses conducted in solution, it represents a convenient probe of the self-assembly process. Upon excitation at 355 nm of 2.0 mM peptide solutions, the emission at 460 nm was recorded across a 300 h period (Figure S9). By reporting the fluorescence intensity as a function of time, we observed consistent trends across the four multi-LARKS samples, characterized by three different kinetic phases. […] This lag-phase was followed by a linear increase of the fluorescence signal at 460 nm in a relatively short period for all the samples (between 5 and 30 h) except in the case of L1-L2, where this second phase was longer (∼80 h). […]

[3] = Critical aggregation concentration (CAC) by intrinsic self-fluorescence; assay type: physicochemical; details: 10 mM PBS pH 7.4, no external probe, excitation 310 nm, emission intensity at 407 or 417 nm vs concentration, break point, 20 °C
Experimental: A Shimadzu RF-6000 (Kyoto, Japan) spectrofluorometer was used to perform fluorescence measurements. Samples were placed in a 10.0 mm × 5.00 mm quartz cell and the settings used for the measurement were excitation and emission bandwidths of 2.5 nm and temperature of 20 °C. The critical aggregation concentration (CAC) of the peptides was estimated through the evaluation of the self-fluorescence behavior of the peptides. After excitation at 310 nm, the intensity of the emission band at 407 or 417 nm was checked and plotted as a function of concentration. Spectra were also recorded in excitation mode.
The ability of the multi-LARKS to self-assemble was evaluated in physiological buffer conditions (10 mM PBS, pH 7.4). Critical aggregation concentrations (CACs), designated as the minimum concentrations at which they spontaneously self-assemble, were assessed in the absence of any external fluorescence probe and by detecting the nonaromatic intrinsic self-fluorescence at increasing peptide concentrations. […] All the multi-LARK sequences here studied presented a near-UV emission, with a maximum of excitation at 310 nm.
By plotting the fluorescence intensity at the maximum emission wavelength as a function of concentration, CAC values, calculated at the break point, resulted 128 μM, 236 μM, 153 μM and 175 μM for L1-L2-L3, L1-L2, L1-L3, and L2-L3, respectively (see Table S2). […]

[4] = Hydrogel stability in contact with acidic and basic solutions; assay type: physicochemical; details: preformed hydrogels, room temperature, macroscopically observed up to 7 days
Experimental: To address the impact of the primary sequence on the hydrogel’s sensitivity to external stimuli, their mechanical behavior as a response to pH and temperature triggers was tested. Preformed L1-L2 and L1-L2-L3 hydrogels were put in contact with both acidic (pH 5) and basic (pH 10) solutions at room temperature and were macroscopically observed over time up to 7 days. […] This behavior can be rationalized considering that the presence of ionizable acidic or basic amino acids typically drives pH-responsive properties in peptide-based systems. In our case, the sequences contain only a single acidic residue (Asp, D), which is located within the linker region rather than in the LARKS domains considered to be responsible for driving the gelation process.

[5] = dissolved in water, overnight incubation at 4 °C; ref Eisenberg and co-workers; cited from earlier work
[6] = Rheological studies of hydrogels as a function of temperature; assay type: physicochemical; details: amplitude 0.1%, frequency 1 Hz; for G′ (storage modulus) upon cooling back to 4 °C / G′ (storage modulus) upon heating to 80 °C / G′ (storage modulus), initial value at 4 °C: 2 wt % hydrogel in PBS; for G′ (storage modulus) upon cooling back to 4 °C: after cooling ramp 80 to 4 °C; for G′ (storage modulus) upon heating to 80 °C: end of heating ramp 4 to 80 °C; for G′ (storage modulus), initial value at 4 °C: start of heating ramp 4 to 80 °C
Experimental: Rheological measurements of freshly preformed hydrogels (1000 μL) were performed with a rotational controlled-stress Haake Mars 40 rheometer (Thermo Fisher, Germany) by using a 3.5 cm diameter flat-plate geometry (P35/TI) with a gap of 0.5 mm. The analyses were conducted at different temperatures increasing from 4 to 80 °C and then decreasing from 80 to 4 °C. Amplitude (γ) was set at 0.1% and Frequency 1 Hz. G′ (storage modulus) and G″ (loss modulus) are reported as a function of the temperature.
To study the mechanical behavior of the matrices, hydrogels from L1-L2-L3 and L1-L2 sequences were subjected to rheological measurements. The storage (G′) and loss (G″) moduli, two key parameters describing the viscoelastic behavior of materials, were studied as a function of the temperature. Measurements were conducted across the entire temperature range, increasing from 4 to 80 °C and subsequently decreasing from 80 to 4 °C. […] However, the heating/cooling process induced significant increase in the rigidity of both samples. […] For the L1-L2 sample, the initial values of G′ at these temperatures were 1 Pa at 4 °C, 32 Pa at 80 °C, and 7314 Pa upon cooling back at 4 °C. To enhance the hydrogel disaggregation response to temperature increase, we adopted a design strategy focused on incorporating disruptive elements into the peptide sequences. This approach stems from the insights that the L3 sequence has the potential to inhibit the aggregation of the multi-LARK peptides. Following this rationale, we initially synthesized a multi-LARK sequence made of L3-L2-L3 LCDs (Figure S13a).

Substance: Ac-SYSGYSNGPSTGGYG-NH2 [L1-L3]
- Hydrogel formation ([1]; 10 mM PBS, overnight at 4 °C): no gel formation
- Lag-phase duration (constant fluorescence intensity) of aggregation kinetics [2]: ~50 h
- Critical aggregation concentration (CAC) [3]: 153 µM

Substance: Ac-SYSGYSGDTSYSSYGQS-NH2 [L1-L2]
- Hydrogel stability to acidic (pH 5) and basic (pH 10) solutions [4]: No significant variations
- Emission maximum of aggregation-induced fluorescence: 400 nm

Substance: Ac-SYSGYSGDTSYSSYGQSNGPSTGGYG-NH2 [L1-L2-L3]
- Hydrogel stability to acidic (pH 5) and basic (pH 10) solutions [4]: No significant variations
- Concentration at which self-supporting hydrogel is obtained ([1]; 10 mM PBS, overnight at 4 °C): ≥ 2 wt %
- Lag-phase duration (constant fluorescence intensity) of aggregation kinetics [2]: ~50 h
- Critical aggregation concentration (CAC) [3]: 128 µM
- Concentration at which hydrogel forms in water [5]: 5 wt %
- G′ (storage modulus) upon cooling back to 4 °C [6]: 75762 Pa
- G′ (storage modulus) upon heating to 80 °C [6]: 4708 Pa
- G′ (storage modulus), initial value at 4 °C [6]: 1967 Pa

Substance: Ac-STGGYGGDTSYSSYGQSNGPSTGGYG-NH2 [L3-L2-L3]
- Hydrogel formation ([1]; concentrations ranging from 2 to 5 wt %): unable to form hydrogels

Substance: Ac-STGGYSGDTSYSSYGQS-NH2 [L1**-L2]
- Concentration at which self-supporting hydrogel is obtained ([1]; 10 mM PBS, overnight at 4 °C): 3 wt %
- Temperature at which hydrogel undergoes breakdown (unable to reform upon cooling) ([6]; 3 wt % hydrogel in PBS, heating 4 to 80 °C): 55 °C

Substance: Ac-SYGGYSGDTSYSSYGQS-NH2 [L1*-L2]
- Concentration at which self-supporting hydrogel is obtained ([1]; 10 mM PBS, overnight at 4 °C): 2 wt %
- G′ (storage modulus) upon cooling back to 4 °C [6]: 154332 Pa
- G′ (storage modulus) upon heating to 80 °C [6]: 497 Pa
- G′ (storage modulus), initial value at 4 °C [6]: 818 Pa
